Source: the supplement of paper PMC10307832

Key:
Assay in all cases: relative viability (nuclei count vs DMSO), 5 days (fraction); higher = more cells survive
HCC-15 = tested on: HCC-15
In short: (§1)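 Five library-drug doses in √10 steps were combined with a fixed anchor-drug dose, or a single drug was given alone, by pin tool to lung cancer cell lines in 1536-well plates the day after seeding. Nuclei were stained and counted after 5 days. Relative viability is the nuclei count in treated wells over that in vehicle wells, taken as the median of duplicate plates.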

SW 1573 = tested on: SW 1573
In short: as §1

LCLC-97TM1 = tested on: LCLC-97TM1
In short: as §1

UMC-11 = tested on: UMC-11
In short: as §1

LC-2-ad = tested on: LC-2-ad
In short: as §1

NCI-H1734 = tested on: NCI-H1734
In short: as §1

NCI-H1563 = tested on: NCI-H1563
In short: as §1

NCI-H1975 = tested on: NCI-H1975
In short: as §1

NCI-H838 = tested on: NCI-H838
In short: as §1

NCI-H2023 = tested on: NCI-H2023
In short: as §1

NCI-H1792 = tested on: NCI-H1792
In short: as §1

A-427 = tested on: A-427
In short: as §1

COR-L 105 = tested on: COR-L 105
In short: as §1

NCI-H1915 = tested on: NCI-H1915
In short: as §1

HCC-44 = tested on: HCC-44
In short: as §1

EPLC-272H = tested on: EPLC-272H
In short: as §1

CAL-12T = tested on: CAL-12T
In short: as §1

NCI-H520 = tested on: NCI-H520
In short: as §1

NCI-H2347 = tested on: NCI-H2347
In short: as §1

NCI-H2405 = tested on: NCI-H2405
In short: as §1

Cc1cn(-c2cc(NC(=O)c3ccc(C)c(Nc4nccc(-c5cccnc5)n4)c3)cc(C(F)(F)F)c2)cn1 [Nilotinib] + C[C@@H](Oc1cc(-c2cnn(C3CCNCC3)c2)cnc1N)c1c(Cl)ccc(F)c1Cl [Crizotinib] (partner 1 µM)
relative viability (HCC-15; first compound 0.001 µM): 0.723
relative viability (HCC-15; first compound 0.003162 µM): 0.96
relative viability (HCC-15; first compound 0.01 µM): 1.1
relative viability (HCC-15; first compound 0.03162 µM): 0.58
relative viability (HCC-15; first compound 0.1 µM): 0.687
relative viability (SW 1573; first compound 0.001 µM): 0.798
relative viability (SW 1573; first compound 0.003162 µM): 0.882
relative viability (SW 1573; first compound 0.01 µM): 0.946
relative viability (SW 1573; first compound 0.03162 µM): 0.826
relative viability (SW 1573; first compound 0.1 µM): 0.823
relative viability (LCLC-97TM1; first compound 0.001 µM): 0.246
relative viability (LCLC-97TM1; first compound 0.003162 µM): 0.328
relative viability (LCLC-97TM1; first compound 0.01 µM): 0.712
relative viability (LCLC-97TM1; first compound 0.03162 µM): 0.311
relative viability (LCLC-97TM1; first compound 0.1 µM): 0.469
relative viability (UMC-11; first compound 0.001 µM): 0.561
relative viability (UMC-11; first compound 0.003162 µM): 0.525
relative viability (UMC-11; first compound 0.01 µM): 0.585
relative viability (UMC-11; first compound 0.1 µM): 0.68
relative viability (LC-2-ad; first compound 0.001 µM): 0.43
relative viability (LC-2-ad; first compound 0.003162 µM): 0.436
relative viability (LC-2-ad; first compound 0.01 µM): 0.449
relative viability (LC-2-ad; first compound 0.03162 µM): 0.42
relative viability (LC-2-ad; first compound 0.1 µM): 0.522
relative viability (NCI-H1734; first compound 0.001 µM): 0.68
relative viability (NCI-H1734; first compound 0.003162 µM): 0.659
relative viability (NCI-H1734; first compound 0.01 µM): 0.717
relative viability (NCI-H1734; first compound 0.03162 µM): 0.433
relative viability (NCI-H1734; first compound 0.1 µM): 0.475
relative viability (NCI-H1563; first compound 0.001 µM): 0.772
relative viability (NCI-H1563; first compound 0.003162 µM): 0.856
relative viability (NCI-H1563; first compound 0.01 µM): 0.757
relative viability (NCI-H1563; first compound 0.03162 µM): 0.914
relative viability (NCI-H1563; first compound 0.1 µM): 0.739
relative viability (NCI-H1975; first compound 0.001 µM): 0.811
relative viability (NCI-H1975; first compound 0.003162 µM): 1.11
relative viability (NCI-H1975; first compound 0.01 µM): 1.16
relative viability (NCI-H1975; first compound 0.03162 µM): 0.616
relative viability (NCI-H1975; first compound 0.1 µM): 0.907
relative viability (NCI-H838; first compound 0.001 µM): 0.896
relative viability (NCI-H838; first compound 0.003162 µM): 0.81
relative viability (NCI-H838; first compound 0.01 µM): 1.03
relative viability (NCI-H838; first compound 0.03162 µM): 0.673
relative viability (NCI-H838; first compound 0.1 µM): 0.926
relative viability (NCI-H2023; first compound 0.001 µM): 0.659
relative viability (NCI-H2023; first compound 0.003162 µM): 0.683
relative viability (NCI-H2023; first compound 0.01 µM): 0.852
relative viability (NCI-H2023; first compound 0.03162 µM): 0.506
relative viability (NCI-H2023; first compound 0.1 µM): 0.569
relative viability (NCI-H1792; first compound 0.001 µM): 0.967
relative viability (NCI-H1792; first compound 0.01 µM): 1.15
relative viability (NCI-H1792; first compound 0.1 µM): 1.16
relative viability (A-427; first compound 0.001 µM): 0.715
relative viability (A-427; first compound 0.01 µM): 1.25
relative viability (A-427; first compound 0.03162 µM): 0.548
relative viability (A-427; first compound 0.1 µM): 0.546
relative viability (COR-L 105; first compound 0.001 µM): 0.821
relative viability (COR-L 105; first compound 0.01 µM): 0.796
relative viability (COR-L 105; first compound 0.03162 µM): 0.668
relative viability (COR-L 105; first compound 0.1 µM): 0.662
relative viability (NCI-H1915; first compound 0.001 µM): 0.73
relative viability (NCI-H1915; first compound 0.003162 µM): 1.18
relative viability (NCI-H1915; first compound 0.01 µM): 1.24
relative viability (NCI-H1915; first compound 0.03162 µM): 0.787
relative viability (NCI-H1915; first compound 0.1 µM): 0.848
relative viability (HCC-44; first compound 0.001 µM): 0.799
relative viability (HCC-44; first compound 0.003162 µM): 0.978
relative viability (HCC-44; first compound 0.01 µM): 1.01
relative viability (HCC-44; first compound 0.03162 µM): 0.717
relative viability (HCC-44; first compound 0.1 µM): 0.754
relative viability (EPLC-272H; first compound 0.001 µM): 0.942
relative viability (EPLC-272H; first compound 0.003162 µM): 0.935
relative viability (EPLC-272H; first compound 0.01 µM): 1.01
relative viability (EPLC-272H; first compound 0.03162 µM): 0.831
relative viability (EPLC-272H; first compound 0.1 µM): 0.917
relative viability (CAL-12T; first compound 0.003162 µM): 0.519
relative viability (CAL-12T; first compound 0.01 µM): 0.902
relative viability (CAL-12T; first compound 0.03162 µM): 0.345
relative viability (CAL-12T; first compound 0.1 µM): 0.6
relative viability (NCI-H520; first compound 0.001 µM): 0.656
relative viability (NCI-H520; first compound 0.01 µM): 0.866
relative viability (NCI-H520; first compound 0.03162 µM): 0.483
relative viability (NCI-H520; first compound 0.1 µM): 0.678
relative viability (NCI-H2347; first compound 0.001 µM): 0.698
relative viability (NCI-H2347; first compound 0.003162 µM): 0.731
relative viability (NCI-H2347; first compound 0.01 µM): 0.686
relative viability (NCI-H2347; first compound 0.03162 µM): 0.629
relative viability (NCI-H2347; first compound 0.1 µM): 0.853
relative viability (NCI-H2405; first compound 0.001 µM): 0.854
relative viability (NCI-H2405; first compound 0.003162 µM): 0.746
relative viability (NCI-H2405; first compound 0.01 µM): 0.84
relative viability (NCI-H2405; first compound 0.03162 µM): 0.747
relative viability (NCI-H2405; first compound 0.1 µM): 0.857
